Measured values taken from paper PMC6440977, “Nucleoside analogue activators of cyclic AMP-independent protein kinase A of Trypanosoma” (Nature Communications, 2019).
“And” between values parts separate entries of the source, which are not always exact repeats. Equal values may be shown once. Read-outs that look alike come from different tables or passages of the source.

What was measured:
PKAC1/2 = format: cell-based, Trypanosoma brucei; conditions: for PKAC1/2 Western quantification: normalized to PFR, WT 0h set to 1, individual replicates; for PKAC1/2 counts / PKAC1/2 normalized / PKAC1/2 fold change: 4 µM; for PKAC1/2 normalized: normalized to PFR-A/C; for PKAC1/2 fold change: untreated WT set to 1
[1] = test system: T. brucei phosphoproteome; assay: Quantitative phosphoproteomics; format: cell-based, Trypanosoma brucei
Procedure: For each sample, 6 × 10^8 T. brucei cells treated or not with 8 µM 7-cyano-7-deazainosine for 15 min were lysed in 300 µl 4% (w/v) sodium deoxycholate, 0.1 M Tris, pH 8.5 for 5 min at 95 °C (according to the protocol of Humphrey et al.[78]). Samples were sonicated using a Bioruptor (Diagenode) (high power, two cycles of 10 min each, 30 s on/off). Protein concentration was determined by BCA protein assay and samples were adjusted to equal concentrations. Sample preparation and mass spectrometry were exactly carried out as described by Humphrey et al.[78]. MaxQuant 1.5.2.8[79] was used to identify proteins and quantify by LFQ with the following parameters: Database, TriTrypDB-39_TbruceiTREU927_AnnotatedProteins; MS tol, 10 ppm; MS/MS tol, 0.5 Da; Peptide FDR, 0.1; Protein FDR, 0.01 Min. peptide Length, 5; Variable modifications, Oxidation (M), Phosphorylation (STY); Fixed modifications, Carbamidomethyl (C); Peptides for protein quantitation, razor and unique; Min. peptides, 1; Min. ratio count, 2. For proteomic analysis, identified proteins were considered as statistically significant with FDR ≤ 0.05 and s0 = 1 (two-sided Student’s T-test adjusted for multiple comparisons by Benjamini–Hochberg correction, Perseus[80]). […] The mass spectrometry phosphoproteomics data have been deposited to the ProteomeExchange Consortium via the PRIDE partner repository (https://www.ebi.ac.uk/pride/archive) with the dataset identifier PXD012245. GO enrichment analysis was performed in TriTrypDB with default settings and visualized in Revigo (http://revigo.irb.hr). The motif discovery tool MoMo (using the motif-x algorithm) implemented in the MEME suite (http://meme-suite.org/) was used for unbiased motif discovery in the phosphoproteome dataset with the T. brucei TriTrypDB-40_TbruceiTREU927 protein database as background. Enriched sequence logos were visualized using CLC Main Workbench 7 (https://www.qiagenbioinformatics.com/).

T. brucei PKA = T. brucei PKA (Trypanosoma brucei brucei, UniProt Q9GU80); assay: In vivo PKA reporter assay (VASP Ser-157 phosphorylation, western blot); format: cell-based;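 further: T. brucei cells expressing human VASP as heterologous PKA substrate, compound exposure at 37 °C, western blot of phospho (50 kDa) versus unphosphorylated (46 kDa) VASP band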
Sequence of T. brucei PKA (Q38DS1 entry or part of it): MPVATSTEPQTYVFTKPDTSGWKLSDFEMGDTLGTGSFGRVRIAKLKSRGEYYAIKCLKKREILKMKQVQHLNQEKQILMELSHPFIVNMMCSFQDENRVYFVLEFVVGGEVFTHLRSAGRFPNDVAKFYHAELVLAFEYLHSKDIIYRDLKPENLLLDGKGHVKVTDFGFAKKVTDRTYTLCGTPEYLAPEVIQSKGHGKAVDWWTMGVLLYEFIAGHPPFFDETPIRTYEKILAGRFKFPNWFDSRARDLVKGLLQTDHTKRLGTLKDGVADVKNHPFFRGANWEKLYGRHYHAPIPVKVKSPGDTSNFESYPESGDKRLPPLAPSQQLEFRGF
Sequence of T. brucei PKA (Q38DR5 entry or part of it, further chain): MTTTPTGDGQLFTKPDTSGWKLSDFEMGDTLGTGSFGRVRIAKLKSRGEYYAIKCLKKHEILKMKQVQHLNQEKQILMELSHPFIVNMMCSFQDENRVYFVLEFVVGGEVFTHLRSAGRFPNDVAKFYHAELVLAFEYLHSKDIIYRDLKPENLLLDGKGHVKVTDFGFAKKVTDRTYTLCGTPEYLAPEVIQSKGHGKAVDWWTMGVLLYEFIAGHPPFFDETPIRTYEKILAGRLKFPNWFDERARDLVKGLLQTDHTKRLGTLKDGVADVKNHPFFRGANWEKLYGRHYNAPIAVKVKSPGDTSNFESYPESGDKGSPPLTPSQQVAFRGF
Sequence of T. brucei PKA (Q9GU80 entry or part of it): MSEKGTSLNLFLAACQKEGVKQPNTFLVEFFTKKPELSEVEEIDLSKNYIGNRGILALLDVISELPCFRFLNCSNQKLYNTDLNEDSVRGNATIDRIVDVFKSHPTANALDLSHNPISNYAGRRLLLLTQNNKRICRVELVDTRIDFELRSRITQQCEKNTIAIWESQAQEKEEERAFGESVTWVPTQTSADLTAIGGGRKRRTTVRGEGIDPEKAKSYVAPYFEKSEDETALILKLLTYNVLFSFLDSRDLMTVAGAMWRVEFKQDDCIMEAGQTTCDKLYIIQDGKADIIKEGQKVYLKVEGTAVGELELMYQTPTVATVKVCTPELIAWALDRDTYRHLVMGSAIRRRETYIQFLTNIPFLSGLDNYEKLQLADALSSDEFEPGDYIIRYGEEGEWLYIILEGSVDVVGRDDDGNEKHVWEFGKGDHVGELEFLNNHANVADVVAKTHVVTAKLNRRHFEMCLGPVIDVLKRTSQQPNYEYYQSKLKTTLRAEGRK

T. brucei proteome = assay: Label-free quantitative proteomics; format: cell-based, Trypanosoma brucei
Procedure: Trypanosomes treated or not with 2 µM 7-CN-7-C-Ino (time course: 0 h, 6 h, 12 h) were washed twice in phosphate buffered saline (PBS) and lysed in Laemmli sample buffer to a concentration of 2.5×10^5 cells µl -1. Protein concentration was determined by Colloidal Coomassie Blue staining and densitometry. 20 µg of protein were loaded on a 10% acrylamide SDS-PAGE gel. Migration was stopped when samples had entered the resolving gel and proteins were visualized by Colloidal Coomassie Blue staining. Each SDS-PAGE band was cut into 1 mm × 1 mm gel pieces and further processed as described previously 26.
Online nanoLC-MS/MS analyses were performed using an Ultimate 3000 RSLC Nano-UPHLC system (Thermo Scientific, USA) coupled to a nanospray Q-Exactive hybrid quadrupole-Orbitrap mass spectrometer (Thermo Scientific, USA). 1 µg of each peptide extract was loaded on a 300 µm ID x 5 mm PepMap C18 precolumn (Thermo Scientific, USA) at a flow rate of 20 µl min -1. After a 3 min desalting step, peptides were separated on a 75 µm ID x 25 cm C 18 Acclaim PepMap® RSLC column (Thermo Scientific, USA) with a 4-40% linear gradient of solvent B (0.1% formic acid in 80% ACN) in 108 min. The separation flow rate was set at 300 nl min-1. The mass spectrometer operated in positive ion mode at a 1.8 kV needle voltage. Data was acquired using Xcalibur 3.1 software in a data-dependent mod e. MS scans (m/z 300-1,600) were recorded at a resolution of R = 70,000 (@ m/z 200) and an AGC target of 3×10 6 ions collected within 100 ms. Dynamic exclusion was set to 30 s and top 12 ions were selected from fragmentation in HCD mode. MS/MS scans with a target value of 1×10 5 ions

[2] = test system: T. brucei ∆pkar/∆pkar (pkar KO) cells; assay: microbe, parasite or virus in culture; format: cell-based, Trypanosoma brucei; conditions: Trypanosoma brucei
human PKARIα = target: T1, human PKARIα (Homo sapiens, UniProt P10644); assay: Binding by isothermal titration calorimetry (ITC)
T1 construct: The full length ORFs (amplified with primers introducing the respective); 6xHis followed by TEV site (N); made in house; host or cells: E. coli Rosetta D3
T1 sequence (P10644 whole entry): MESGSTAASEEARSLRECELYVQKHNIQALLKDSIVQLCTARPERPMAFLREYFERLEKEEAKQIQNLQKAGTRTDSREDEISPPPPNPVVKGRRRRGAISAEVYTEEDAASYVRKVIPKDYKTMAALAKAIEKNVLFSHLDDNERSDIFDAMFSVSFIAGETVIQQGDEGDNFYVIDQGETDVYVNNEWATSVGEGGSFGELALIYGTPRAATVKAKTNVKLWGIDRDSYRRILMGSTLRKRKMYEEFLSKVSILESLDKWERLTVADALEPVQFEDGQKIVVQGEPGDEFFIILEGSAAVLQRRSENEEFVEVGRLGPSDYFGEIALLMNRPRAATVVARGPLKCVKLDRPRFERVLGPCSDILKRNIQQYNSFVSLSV

[3] = treated (Act) vs control (Crtl), significant, FDR ≤ 0.05, s0=2, 4 replicates
[4] = WT trypanosomes, 12 hours treatment vs untreated, LFQ, three independent replicates
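Wherever PKAC1/2 Western quantification is given: trypanosoma brucei cells, PKAC1/2 signal from western blots read on an infrared fluorescence scanning system.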
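Wherever PKAC1/2 counts is given: trypanosoma brucei cells, PKAC1/2 signal from western blots read on an infrared fluorescence scanning system.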
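Wherever PKAC1/2 fold change is given: trypanosoma brucei cells, PKAC1/2 signal from western blots read on an infrared fluorescence scanning system.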
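Wherever PKAC1/2 normalized is given: trypanosoma brucei cells, PKAC1/2 signal from western blots read on an infrared fluorescence scanning system.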

N#Cc1cn([C@@H]2O[C@H](CO)[C@@H](O)[C@H]2O)c2ncnc(O)c12 [7-CN-7-C-Ino, 7-Cyano-7-deazainosine]
PKAC1/2 Western quantification (PKAC1/2; R KO cells, 6 h treatment): 0.4425 and 0.1597 and 0.1981 | PKAC1/2 Western quantification (PKAC1/2; R KO cells, 12 h treatment): 0.2802 and 0.2063 and 0.2365 | PKAC1/2 Western quantification (PKAC1/2; WT cells, 6 h treatment): 0.4685 and 0.4579 and 0.5439 | PKAC1/2 Western quantification (PKAC1/2; WT cells, 12 h treatment): 0.3997 and 0.2606 and 0.4376 | PKAC1/2 counts (PKAC1/2; WT, 12 h): 99.53 | PKAC1/2 normalized (PKAC1/2; WT, 12 h): 60.689 | PKAC1/2 fold change (PKAC1/2; WT, 12 h): 0.4385 | PKAC1/2 counts (PKAC1/2; WT, 18 h): 76 | PKAC1/2 normalized (PKAC1/2; WT, 18 h): 55.0725 | PKAC1/2 fold change (PKAC1/2; WT, 18 h): 0.3979 | PKAC1/2 counts (PKAC1/2; WT, 24 h): 86.74 | PKAC1/2 normalized (PKAC1/2; WT, 24 h): 55.6026 | PKAC1/2 fold change (PKAC1/2; WT, 24 h): 0.4018 | PKAC1/2 counts (PKAC1/2; pkar KO, 12 h): 70.66 | PKAC1/2 normalized (PKAC1/2; pkar KO, 12 h): 3.197 | PKAC1/2 fold change (PKAC1/2; pkar KO, 12 h): 0.1969 | PKAC1/2 counts (PKAC1/2; pkar KO, 18 h): 69.65 | PKAC1/2 normalized (PKAC1/2; pkar KO, 18 h): 3.869 | PKAC1/2 fold change (PKAC1/2; pkar KO, 18 h): 0.2383 | PKAC1/2 counts (PKAC1/2; pkar KO, 24 h): 95.11 | PKAC1/2 normalized (PKAC1/2; pkar KO, 24 h): 3.187 | PKAC1/2 fold change (PKAC1/2; pkar KO, 24 h): 0.1963 | downregulated phosphosites (number) ([1]; 8 µM, 15 min): 84 | downregulated phosphosites containing PKA motifs ([1]; 8 µM, 15 min): 19% | upregulated phosphosites containing PKA motifs ([1]; 8 µM, 15 min): 77% | significantly upregulated phosphosites (number) ([1]; 8 µM, 15 min, FDR ≤ 0.05, s0 = 2): 642 | Difference, phosphopeptide Tb11.v5.1036.1 gamma-tubulin complex subunit, putative, S120 [1, 3]: 3.988 | Difference, phosphopeptide Tb927.10.630 hypothetical protein, conserved, S331 [1, 3]: 2.868 | Difference, phosphopeptide Tb927.10.8410 hypothetical protein, conserved, S234 [1, 3]: 2.478 | VASP phosphorylation in PKAC3 deletion + PKAC1/2 RNAi cell line, in words (T. brucei PKA; 4 µM, 15 min): undetectable | EC50 (T. brucei PKA; read-out: EC50 in vivo PKA assay, VASP reporter, 15 min treatment, mean ± SD): 838 ± 139 nM | fold regulation KO12 vs KO0 (up/down), Tb927.2.5820 hypothetical protein (T. brucei proteome; PKAR knock out trypanosomes, 12 hours treatment vs untreated, LFQ, three independent replicates): 1.69 ± 0.28 fold | fold regulation WT12 vs WT0 (up/down), Tb927.10.12510 P-type H+-ATPase (T. brucei proteome; [4]): 0.60 ± 0.03 fold | fold regulation WT12 vs WT0 (up/down), Tb927.10.2440 Metacaspase-4 (T. brucei proteome; [4]): 0.65 ± 0.03 fold | fold regulation WT12 vs WT0 (up/down), Tb927.10.8440 glucose transporter (T. brucei proteome; [4]): 1.56 ± 0.16 fold | fold regulation WT12 vs WT0 (up/down), Tb927.11.14750 PSP1 C-terminal conserved region (T. brucei proteome; [4]): 0.52 ± 0.04 fold | fold regulation WT12 vs WT0 (up/down), Tb927.2.5820 hypothetical protein (T. brucei proteome; [4]): 1.82 ± 0.31 fold | fold regulation WT12 vs WT0 (up/down), Tb927.4.4310 Nucleoporin NUP64 (T. brucei proteome; [4]): 0.65 ± 0.05 fold | fold regulation WT12 vs WT0 (up/down), Tb927.7.3450 I/6 autoantigen (T. brucei proteome; [4]): 1.58 ± 0.04 fold | fold regulation WT12 vs WT0 (up/down), Tb927.7.7520;Tb927.7.7530 receptor-type adenylate cyclase GRESAG 4 (T. brucei proteome; [4]): 0.65 ± 0.02 fold | fold regulation WT12 vs WT0 (up/down), Tb927.8.6760 IgE-dep. histamine-releasing factor (T. brucei proteome; [4]): 0.66 ± 0.01 fold | fold regulation WT12 vs WT0 (up/down), Tb927.8.7780 hypothetical protein (T. brucei proteome; [4]): 1.55 ± 0.08 fold | fold regulation WT12 vs WT0 (up/down), Tb927.9.10100 hypothetical protein (T. brucei proteome; [4]): 0.53 ± 0.02 fold | fold regulation WT12 vs WT0 (up/down), Tb927.9.11100 cAMP-dependent protein kinase catalytic subunit 1 (T. brucei proteome; [4]): 0.36 ± 0.01 fold | fold regulation WT12 vs WT0 (up/down), Tb927.9.12380 Histidine phosphatase superfamily (branch 1) (T. brucei proteome; [4]): 0.48 ± 0.11 fold | fold regulation WT12 vs WT0 (up/down), Tb927.9.2670 Engulfment and cell motility domain-containing protein (T. brucei proteome; [4]): 1.70 ± 0.08 fold | significantly regulated proteins, in words (T. brucei proteome; wild type, 6 h post induction): No significantly regulated proteins | significantly regulated proteins (number) (T. brucei proteome; wild type, 12 h post induction, ≥[…], p ≤ 0.05): 14 | IC50 ([2]; 72 h, read-out: IC50 growth pkar KO): ≥ 125 µM | EC50 ([2]; read-out: EC50, Alamar blue cell viability assay, KO, individual replicate results, pkar KO cells, fit ambiguous, bound given in µM): > 125 µM | binding to purified human PKARIα, in words (human PKARIα): did not bind
